Experimental data taken from ChEMBL document CHEMBL2429775, “The cytotoxicity of 8-O-4' neolignans from the seeds of Crataegus pinnatifida” (Bioorg Med Chem Lett, 2013).

How the values were obtained:
MRC5 = assay: Growth inhibition against human MRC5 cells after 48 hrs by MTT assay; format: cell-based; details: for IC50: Homo sapiens, MRC5, 48 h; for growth inhibition (GI): human, mrc5, 48 h
HeLa = assay: Growth inhibition against human HeLa cells after 48 hrs by MTT assay; format: functional, cell-based
MCF7 = assay: Growth inhibition against human MCF7 cells after 48 hrs by MTT assay; format: functional, cell-based; details: for IC50: MCF7, 48 h
HepG2 = assay: Growth inhibition against human HepG2 cells after 48 hrs by MTT assay; format: functional, cell-based; details: for IC50: HepG2, 48 h
A549 = assay: Growth inhibition against human A549 cells after 48 hrs by MTT assay; format: functional, cell-based; details: for IC50: A549, 48 h
HCT-116 = assay: Growth inhibition against human HCT116 cells after 48 hrs by MTT assay; format: functional, cell-based; details: for IC50: HCT-116, 48 h
[1] = (§1) Growth inhibition against human A375-S2 cells after 48 hrs by MTT assay; format: functional, cell-based; details: A375-S2, 48 h
A375-S2 = assay: as §1; format: functional, cell-based
K562 = assay: Growth inhibition against human K562 cells after 48 hrs by MTT assay; format: functional, cell-based; details: for IC50: K562, 48 h
HT-1080 = assay: Growth inhibition against human HT1080 cells after 48 hrs by MTT assay; format: functional, cell-based; details: for IC50: HT-1080, 48 h
HL-60 = assay: Growth inhibition against human HL60 cells after 48 hrs by MTT assay; format: functional, cell-based; details: for IC50: HL-60, 48 h
U-937 = assay: Growth inhibition against human U937 cells after 48 hrs by MTT assay; format: functional, cell-based; details: for IC50: U-937, 48 h

SMILES: COc1cc([C@H](O)[C@@H](CO)Oc2ccc(C=O)cc2OC)ccc1O
- IC50 (MRC5): > 50 µM
- growth inhibition (GI) (MRC5): Dose-dependent effect
- IC50 (HeLa): > 50 µM
- growth inhibition (GI) (HeLa): Dose-dependent effect
- growth inhibition (GI) (MCF7): Dose-dependent effect
- IC50 (MCF7): > 50 µM
- growth inhibition (GI) (HepG2): Dose-dependent effect
- IC50 (HepG2): > 50 µM
- growth inhibition (GI) (A549): Dose-dependent effect
- IC50 (A549): > 50 µM
- growth inhibition (GI) (HCT-116): Dose-dependent effect
- IC50 (HCT-116): > 50 µM
- IC50 [1]: > 50 µM
- growth inhibition (GI) (A375-S2): Dose-dependent effect
- growth inhibition (GI) (K562): Dose-dependent effect
- IC50 (K562): > 50 µM
- growth inhibition (GI) (HT-1080): Dose-dependent effect
- IC50 (HT-1080): > 50 µM
- growth inhibition (GI) (HL-60): Dose-dependent effect
- IC50 (HL-60): > 50 µM
- growth inhibition (GI) (U-937): Dose-dependent effect
- IC50 (U-937): 39.1 µM

SMILES: COC/C=C/c1ccc(O[C@H](CO)[C@H](OC)c2ccc(O)c(OC)c2)c(OC)c1
- IC50 (MRC5): > 50 µM
- growth inhibition (GI) (MRC5): Dose-dependent effect
- IC50 (HeLa): > 50 µM
- growth inhibition (GI) (HeLa): Dose-dependent effect
- growth inhibition (GI) (MCF7): Dose-dependent effect
- IC50 (MCF7): > 50 µM
- growth inhibition (GI) (HepG2): Dose-dependent effect
- IC50 (HepG2): > 50 µM
- growth inhibition (GI) (A549): Dose-dependent effect
- IC50 (A549): > 50 µM
- growth inhibition (GI) (HCT-116): Dose-dependent effect
- IC50 (HCT-116): 36 µM
- IC50 [1]: > 50 µM
- growth inhibition (GI) (A375-S2): Dose-dependent effect
- growth inhibition (GI) (K562): Dose-dependent effect
- IC50 (K562): > 50 µM
- growth inhibition (GI) (HT-1080): Dose-dependent effect
- IC50 (HT-1080): 36.4 µM
- growth inhibition (GI) (HL-60): Dose-dependent effect
- IC50 (HL-60): 27.4 µM
- growth inhibition (GI) (U-937): Dose-dependent effect
- IC50 (U-937): > 50 µM

SMILES: COc1cc([C@@H](O)[C@@H](CO)Oc2ccc(C=O)cc2OC)ccc1O
- IC50 (MRC5): > 50 µM
- growth inhibition (GI) (MRC5): Dose-dependent effect
- IC50 (HeLa): > 50 µM
- growth inhibition (GI) (HeLa): Dose-dependent effect
- growth inhibition (GI) (MCF7): Dose-dependent effect
- IC50 (MCF7): > 50 µM
- growth inhibition (GI) (HepG2): Dose-dependent effect
- IC50 (HepG2): > 50 µM
- growth inhibition (GI) (A549): Dose-dependent effect
- IC50 (A549): > 50 µM
- growth inhibition (GI) (HCT-116): Dose-dependent effect
- IC50 (HCT-116): > 50 µM
- IC50 [1]: > 50 µM
- growth inhibition (GI) (A375-S2): Dose-dependent effect
- growth inhibition (GI) (K562): Dose-dependent effect
- IC50 (K562): > 50 µM
- growth inhibition (GI) (HT-1080): Dose-dependent effect
- IC50 (HT-1080): > 50 µM
- growth inhibition (GI) (HL-60): Dose-dependent effect
- IC50 (HL-60): > 50 µM
- growth inhibition (GI) (U-937): Dose-dependent effect
- IC50 (U-937): 32.2 µM

SMILES: COc1cc([C@H](O)[C@@H](CO)Oc2ccc(/C=C/C=O)cc2OC)ccc1O
- IC50 (MRC5): > 50 µM
- growth inhibition (GI) (MRC5): Dose-dependent effect
- IC50 (HeLa): > 50 µM
- growth inhibition (GI) (HeLa): Dose-dependent effect
- growth inhibition (GI) (MCF7): Dose-dependent effect
- IC50 (MCF7): > 50 µM
- growth inhibition (GI) (HepG2): Dose-dependent effect
- IC50 (HepG2): 38.5 µM
- growth inhibition (GI) (A549): Dose-dependent effect
- IC50 (A549): 33.6 µM
- growth inhibition (GI) (HCT-116): Dose-dependent effect
- IC50 (HCT-116): 32.5 µM
- IC50 [1]: 36.4 µM
- growth inhibition (GI) (A375-S2): Dose-dependent effect
- growth inhibition (GI) (K562): Dose-dependent effect
- IC50 (K562): > 50 µM
- growth inhibition (GI) (HT-1080): Dose-dependent effect
- IC50 (HT-1080): 35.2 µM
- growth inhibition (GI) (HL-60): Dose-dependent effect
- IC50 (HL-60): 36.6 µM
- growth inhibition (GI) (U-937): Dose-dependent effect
- IC50 (U-937): > 50 µM

SMILES: O=c1[nH]cc(F)c(=O)[nH]1 [FLUOROURACIL]
- growth inhibition (GI) (HeLa): Dose-dependent effect
- growth inhibition (GI) (MCF7): Dose-dependent effect
- growth inhibition (GI) (HepG2): Dose-dependent effect
- growth inhibition (GI) (A549): Dose-dependent effect
- growth inhibition (GI) (HCT-116): Dose-dependent effect
- growth inhibition (GI) (A375-S2): Dose-dependent effect
- growth inhibition (GI) (K562): Dose-dependent effect
- growth inhibition (GI) (HT-1080): Dose-dependent effect
- growth inhibition (GI) (HL-60): Dose-dependent effect
- IC50 (HL-60): 10.1 µM
- growth inhibition (GI) (U-937): Dose-dependent effect

SMILES: COc1cc([C@@H](OC)[C@@H](CO)Oc2ccc(/C=C/C=O)cc2OC)ccc1O
- IC50 (MRC5): > 50 µM
- growth inhibition (GI) (MRC5): Dose-dependent effect
- IC50 (HeLa): > 50 µM
- growth inhibition (GI) (HeLa): Dose-dependent effect
- growth inhibition (GI) (MCF7): Dose-dependent effect
- IC50 (MCF7): > 50 µM
- growth inhibition (GI) (HepG2): Dose-dependent effect
- IC50 (HepG2): 40 µM
- growth inhibition (GI) (A549): Dose-dependent effect
- IC50 (A549): > 50 µM
- growth inhibition (GI) (HCT-116): Dose-dependent effect
- IC50 (HCT-116): 26.4 µM
- IC50 [1]: > 50 µM
- growth inhibition (GI) (A375-S2): Dose-dependent effect
- growth inhibition (GI) (K562): Dose-dependent effect
- IC50 (K562): > 50 µM
- growth inhibition (GI) (HT-1080): Dose-dependent effect
- IC50 (HT-1080): 31.9 µM
- growth inhibition (GI) (HL-60): Dose-dependent effect
- IC50 (HL-60): 25.5 µM
- growth inhibition (GI) (U-937): Dose-dependent effect
- IC50 (U-937): 2.71 µM

SMILES: COc1cc([C@@H](O)[C@@H](CO)Oc2ccc(/C=C/C=O)cc2OC)ccc1O
- IC50 (MRC5): > 50 µM
- growth inhibition (GI) (MRC5): Dose-dependent effect
- IC50 (HeLa): > 50 µM
- growth inhibition (GI) (HeLa): Dose-dependent effect
- growth inhibition (GI) (MCF7): Dose-dependent effect
- IC50 (MCF7): > 50 µM
- growth inhibition (GI) (HepG2): Dose-dependent effect
- IC50 (HepG2): 38.6 µM
- growth inhibition (GI) (A549): Dose-dependent effect
- IC50 (A549): 25.5 µM
- growth inhibition (GI) (HCT-116): Dose-dependent effect
- IC50 (HCT-116): 27.3 µM
- IC50 [1]: 34.2 µM
- growth inhibition (GI) (A375-S2): Dose-dependent effect
- growth inhibition (GI) (K562): Dose-dependent effect
- IC50 (K562): > 50 µM
- growth inhibition (GI) (HT-1080): Dose-dependent effect
- IC50 (HT-1080): 33 µM
- growth inhibition (GI) (HL-60): Dose-dependent effect
- IC50 (HL-60): 33.5 µM
- growth inhibition (GI) (U-937): Dose-dependent effect
- IC50 (U-937): > 50 µM
